According to patent US9205064B2, “Methods for the diagnosis of oncological disorders using epimetabolic shifters, multidimensional intracellular molecules, or environmental influencers” (Berg LLC, priority 2009, dated 2015):

Assays:
[1] = system: MCF-7 breast cancer cells; assay: SeaHorse XF analyzer OCR and ECAR; format: cell-based; settings: absence and presence of stressors
Text: Environmental influencers (e.g., MIMs or Epi-shifters) may also be identified by changes in cellular energetics. One example of the measurement of cellular energetics are the real-time measures of the consumption of molecular oxygen and/or the change in pH of the media of a cell culture. For example, the ability of a potential epi-shifter to modulate the metabolic state of a cell may be analyzed using, for example, the XF24 Analyzer (Seahorse, Inc.). This technology allows for real time detection of oxygen and pH changes in a monolayer of cells in order to evaluate the bioenergetics of a cell microenvironment. The XF24 Analyzer measures and compares the rates of oxygen consumption (OCR), which is a measure of aerobic metabolism, and extracellular acidification (ECAR), which is a measure of glycolysis, both key indicators of cellular energetics.
(SeaHorse Biosciences Inc, North Billerica, Mass.).
In contrast, cancer cells (e.g., MCF-7, PaCa-2) are inherently primed to culture at higher levels of glucose compared to normal cells due to their glycolytic phenotype for maintenance in culture.

[2] = system: Lactate Dehydrogenase (LDH); assay: Western blot of lactate dehydrogenase levels; format: cell-based, human; settings: cancer cells
Description: The samples were processed and run on a 4-12% Bis-Tris Novex NuPAGE gel as described above. The gels were run, transferred and stained essentially as described above.
After transfer each blot was dried for 15-20 minutes, activated with methanol for 5 seconds, washed with water for 5 minutes, and TBST for 15 minutes. The blots were blocked for 1 hour with 5% blocking reagent in TBS-T at room temperature and then washed 3 times with TBS-T (1×-15′; 2×5′ each) and probed with the primary antibody for Lactate Dehydrogenase (abcam ab2101; polyclonal) in 5% BSA (at 1:1000 dilutions) by incubation overnight at 4 deg C. with shaking. After the overnight incubation with primary antibody for Lactate Dehydrogenase, the blots were washed 3 times with TBS-T (1×-15′; 2×5′ each) and probed with the secondary antibody (rabbit antigoat; 1:10,000 dilution) for 1 h at room temperature. After 1 h of incubation with secondary antibodies, the blots were washed 3 times with TBS-T (1×-15′; 2×5′ each) and then incubated with ECF reagent for 5 mins and then each blot scanned with 5100 Fuji Laser scanner at 25 uM resolution, 16 bit, green laser, at 400V and at 500 V. […]
The levels of LDH and PDH were determined by probing the blots successively with primary antibodies for LDH and PDH, essentially as described above. […]

[3] = system: Succinate Dehydrogenase B in NCIE0808 Mitopreps; assay: Western blot of succinate dehydrogenase B in mitochondrial preparations; format: cell-based; settings: mitochondrial preparations of cancer cells
Description: The above blots were stripped by incubating for 30 minutes with methanol, followed by two 10 minute washes with TBS-T, then 30 minutes of incubation with Stripping buffer at 50 deg C., and followed by two washes with 100 ml or more of TBS-T for 30′ each. The blots were scanned in laser scanner to check for complete stripping. The blots were activated with methanol for 5 seconds, washed with water for 5 minutes, and TBST for 15 minutes. The blots were blocked for 1 hour with 5% blocking reagent in TBS-T at room temperature and then washed 3 times with TBS-T (1×-15′; 2×5′ each) and probed with the primary antibody for PKM2, SDHB or SDHC in 5% BSA in TBS-T by incubation overnight at 4 deg C. with gentle shaking. The primary antibody for SDHC (ABNOVA H00006391-M02; antimouse) was at 1:500 dilution. The primary antibody for SDHB was from Abcam ab4714-200; antimouse; at 1:1000 dilution. The primary antibody for Pyruvate Kinase M2 (PKM2) was from Novus Biologicals H00005315-D0IP; antirabbit; at 1:500 dilution. After incubation with primary antibodies, the membranes were washed 3 times with TBS-T (1×-15′; 2×5′ each) and probed with the secondary antibody (SDHB & C antimouse; and PKM2 antirabbit; 1:10,000 dilution) for 1 h on the orbital tilting shaker at room temperature. […]

Structure (SMILES): COC1=C(OC)C(=O)C(C/C=C(\C)CC/C=C(\C)CC/C=C(\C)CC/C=C(\C)CC/C=C(\C)CC/C=C(\C)CC/C=C(\C)CC/C=C(\C)CC/C=C(\C)CCC=C(C)C)=C(C)C1=O [Q10, Coenzyme Q10]
- OCR values [1]: consistent reduction
- Lactate Dehydrogenase (LDH) expression [2]: reduced
- SDH Subunit B protein levels [3]: increase SDH protein levels
